Laboratory results from ChEMBL document CHEMBL3885861, “Open TG-GATES”.

Organism: Rattus norvegicus
Assay: Open TG-GATES - Regimen: Single
Assay type: toxicity, organism-based, Sprague-Dawley
Design: regimen Single, gender Male, age 6 weeks
Settings: in vivo, ip, route intraperitoneal injection; for APTT / Bas / Eos / Fbg / Hb / Lym / MCH / MCHC / Mono / Neu / PT / Plat / RBC / Ret / WBC / Ht / MCV: tissue Blood; for KIDNEY_L / KIDNEY_R / KIDNEY_TOTAL: tissue Kidney; for LIVER: tissue Liver; for ALP / ALT / AST / BUN / CRE / Ca / DBIL / GLC / IP / K / LDH / PL / RALB / TBIL / TC / TG / TP / gamma-GTP / Na: tissue Plasma
[1] = 0.3 mg/kg, 3 h, dose 300 ug/Kg, dose level Middle
[2] = 0.3 mg/kg, 6 h, dose 300 ug/Kg, dose level Middle
[3] = 0.3 mg/kg, 9 h, dose 300 ug/Kg, dose level Middle
[4] = 0.3 mg/kg, 24 h, dose 300 ug/Kg, dose level Middle
[5] = 3 mg/kg, 3 h, dose 3000 ug/Kg, dose level High
[6] = 3 mg/kg, 6 h, dose 3000 ug/Kg, dose level High
[7] = 3 mg/kg, 9 h, dose 3000 ug/Kg, dose level High
[8] = 3 mg/kg, 24 h, dose 3000 ug/Kg, dose level High

## LPS
[1]
  APTT: 22.5 s
  Bas: 0%
  Eos: 0.3%
  Fbg: 152.7 mg/dL
  Hb: 13.6 g/dL
  Lym: 75%
  MCH: 21.8 pg
  MCHC: 32.9%
  Mono: 0.7%
  Neu: 24%
  PT: 17.9 s
  Plat: 65.5 x10_4/uL
  RBC: 625.3 x10_4/ul
  Ret: 9.1%
  WBC: 24.9 x10_2/uL
  KIDNEY_L: 1 g
  KIDNEY_R: 1 g
  KIDNEY_TOTAL: 2 g
  LIVER: 8.6 g
  ALP: 1337.3 IU/L
  ALT: 67.3 IU/L
  AST: 171 IU/L
  BUN: 12.7 mg/dL
  CRE: 0.2 mg/dL
  Ca: 9.7 mg/dL
  DBIL: 0.0533 mg/dL
  GLC: 138.7 mg/dL
  IP: 9.3 mg/dL
  K: 3.9 meq/L
  LDH: 487.3 IU/L
  PL: 134 mg/dL
  RALB: 2.2 g/dL
  TBIL: 0.2 mg/dL
  TC: 68.3 mg/dL
  TG: 96 mg/dL
  TP: 5 g/dL
  gamma-GTP: 1 IU/L
[2]
  TERMINAL_BW: 193.4 g
  APTT: 28.2 s
  Bas: 0%
  Eos: 1%
  Fbg: 185.7 mg/dL
  Hb: 13.6 g/dL
  Ht: 40.7%
  Lym: 56%
  MCHC: 33.3%
  MCV: 64.7 fL
  Mono: 1%
  Neu: 41.3%
  PT: 17.8 s
  Plat: 56 x10_4/uL
  RBC: 629.3 x10_4/ul
  Ret: 9.3%
  WBC: 34.8 x10_2/uL
  KIDNEY_L: 0.9 g
  KIDNEY_R: 0.9 g
  KIDNEY_TOTAL: 1.9 g
  LIVER: 8 g
  ALP: 1219 IU/L
  ALT: 143.7 IU/L
  AST: 272 IU/L
  BUN: 18.3 mg/dL
  CRE: 0.2 mg/dL
  Ca: 9.7 mg/dL
  DBIL: 0.1 mg/dL
  GLC: 140 mg/dL
  IP: 9.9 mg/dL
  K: 4 meq/L
  LDH: 1262.7 IU/L
  Na: 139.7 meq/L
  PL: 163.3 mg/dL
  RALB: 2.2 g/dL
  TBIL: 0.4 mg/dL
  TC: 103.7 mg/dL
  TG: 65.3 mg/dL
  TP: 5 g/dL
  gamma-GTP: 2.3 IU/L
[3]
  TERMINAL_BW: 188.8 g
  APTT: 22.1 s
  Bas: 0%
  Eos: 1%
  Fbg: 248.7 mg/dL
  Hb: 13.8 g/dL
  Lym: 51.3%
  MCV: 64.7 fL
  Mono: 1%
  Neu: 46.7%
  Plat: 59.9 x10_4/uL
  RBC: 643.7 x10_4/ul
  Ret: 8.7%
  WBC: 71 x10_2/uL
  KIDNEY_L: 0.9 g
  KIDNEY_R: 0.9 g
  KIDNEY_TOTAL: 1.9 g
  LIVER: 7.2 g
  ALP: 1291 IU/L
  ALT: 126.3 IU/L
  AST: 246.7 IU/L
  BUN: 16.3 mg/dL
  CRE: 0.2 mg/dL
  Ca: 10 mg/dL
  DBIL: 0.0533 mg/dL
  GLC: 139.3 mg/dL
  IP: 9.6 mg/dL
  K: 4.1 meq/L
  LDH: 1570.3 IU/L
  Na: 140.3 meq/L
  PL: 166.3 mg/dL
  RALB: 2.4 g/dL
  TBIL: 0.2 mg/dL
  TC: 119 mg/dL
  TG: 38 mg/dL
  TP: 5.4 g/dL
  gamma-GTP: 4.3 IU/L
[4]
  TERMINAL_BW: 189.4 g
  APTT: 19.4 s
  Bas: 0%
  Eos: 1%
  Fbg: 519 mg/dL
  Hb: 13.6 g/dL
  Lym: 61.7%
  MCH: 20.6 pg
  MCHC: 32.9%
  Mono: 2.7%
  Neu: 33.3%
  PT: 14.6 s
  Plat: 53.7 x10_4/uL
  RBC: 660.3 x10_4/ul
  Ret: 6.6%
  WBC: 82.4 x10_2/uL
  KIDNEY_L: 0.9 g
  KIDNEY_R: 0.9 g
  KIDNEY_TOTAL: 1.8 g
  LIVER: 9.2 g
  ALP: 1258 IU/L
  ALT: 36.7 IU/L
  AST: 71 IU/L
  BUN: 18.3 mg/dL
  CRE: 0.2 mg/dL
  DBIL: 0.01 mg/dL
  GLC: 181.3 mg/dL
  IP: 9.2 mg/dL
  K: 4.7 meq/L
  LDH: 64 IU/L
  PL: 176 mg/dL
  RALB: 2.7 g/dL
  TBIL: 0.07 mg/dL
  TC: 107 mg/dL
  TG: 47.7 mg/dL
  TP: 5.9 g/dL
  gamma-GTP: 1.7 IU/L
[5]
  TERMINAL_BW: 197.5 g
  Bas: 0.3%
  Eos: 0%
  Fbg: 186.3 mg/dL
  Ht: 40.6%
  Lym: 62.3%
  MCV: 66.6 fL
  Mono: 2%
  Neu: 34.7%
  PT: 17.1 s
  Plat: 83.4 x10_4/uL
  RBC: 608.7 x10_4/ul
  Ret: 9.7%
  WBC: 42.6 x10_2/uL
  KIDNEY_L: 0.9 g
  KIDNEY_R: 0.9 g
  KIDNEY_TOTAL: 1.9 g
  LIVER: 9.2 g
  ALP: 1326.7 IU/L
  ALT: 48 IU/L
  AST: 122.3 IU/L
  BUN: 15 mg/dL
  CRE: 0.2 mg/dL
  Ca: 10 mg/dL
  DBIL: 0.0233 mg/dL
  GLC: 148.7 mg/dL
  K: 4.1 meq/L
  LDH: 229.3 IU/L
  RALB: 2.2 g/dL
  TBIL: 0.0667 mg/dL
  TC: 78.3 mg/dL
  TG: 143 mg/dL
  TP: 4.8 g/dL
  gamma-GTP: 1.7 IU/L
[6]
  TERMINAL_BW: 192.5 g
  APTT: 25.9 s
  Bas: 0%
  Eos: 1%
  Fbg: 158.3 mg/dL
  Lym: 65.3%
  MCHC: 32.8%
  MCV: 64.5 fL
  Mono: 1%
  Neu: 31.7%
  PT: 18.2 s
  Plat: 47.4 x10_4/uL
  RBC: 627.3 x10_4/ul
  Ret: 8.9%
  WBC: 21.1 x10_2/uL
  KIDNEY_L: 1 g
  KIDNEY_R: 0.9 g
  KIDNEY_TOTAL: 1.9 g
  LIVER: 7.6 g
  ALP: 1321.7 IU/L
  ALT: 378.7 IU/L
  AST: 499.3 IU/L
  BUN: 23.3 mg/dL
  CRE: 0.2 mg/dL
  Ca: 9.5 mg/dL
  DBIL: 0.2 mg/dL
  GLC: 124.3 mg/dL
  IP: 10.4 mg/dL
  K: 4.4 meq/L
  LDH: 2239.3 IU/L
  Na: 140.3 meq/L
  PL: 156.7 mg/dL
  RALB: 2.2 g/dL
  TBIL: 0.3 mg/dL
  TC: 90 mg/dL
  TG: 87 mg/dL
  TP: 4.9 g/dL
  gamma-GTP: 2.7 IU/L
[7]
  TERMINAL_BW: 188.4 g
  APTT: 25 s
  Bas: 0%
  Eos: 1%
  Fbg: 180.7 mg/dL
  Ht: 41.4%
  Lym: 56%
  MCHC: 32.7%
  MCV: 64.7 fL
  Mono: 1%
  Neu: 42%
  PT: 17.9 s
  Plat: 27.3 x10_4/uL
  RBC: 641 x10_4/ul
  Ret: 8.6%
  WBC: 48.1 x10_2/uL
  KIDNEY_L: 0.9 g
  KIDNEY_R: 0.9 g
  KIDNEY_TOTAL: 1.9 g
  LIVER: 7.4 g
  ALP: 1439.3 IU/L
  ALT: 320.3 IU/L
  AST: 534.3 IU/L
  BUN: 29.7 mg/dL
  CRE: 0.2 mg/dL
  Ca: 9.5 mg/dL
  DBIL: 0.2 mg/dL
  GLC: 116 mg/dL
  K: 4.6 meq/L
  LDH: 1843.3 IU/L
  Na: 138.3 meq/L
  PL: 169.7 mg/dL
  RALB: 2.1 g/dL
  TBIL: 0.4 mg/dL
  TC: 115.7 mg/dL
  TG: 117.7 mg/dL
  TP: 4.8 g/dL
  gamma-GTP: 4 IU/L
[8]
  TERMINAL_BW: 191.8 g
  APTT: 23.8 s
  Bas: 0.7%
  Eos: 1%
  Fbg: 336 mg/dL
  Hb: 12.1 g/dL
  Ht: 37.4%
  Lym: 55.3%
  MCHC: 32.4%
  MCV: 64 fL
  Mono: 2%
  Neu: 40.7%
  PT: 15.3 s
  Plat: 41.9 x10_4/uL
  RBC: 583.3 x10_4/ul
  Ret: 7.7%
  WBC: 99.6 x10_2/uL
  KIDNEY_L: 0.9 g
  KIDNEY_R: 1 g
  KIDNEY_TOTAL: 1.9 g
  LIVER: 8.3 g
  ALP: 1299 IU/L
  ALT: 330.3 IU/L
  AST: 740.3 IU/L
  BUN: 31.7 mg/dL
  CRE: 0.2 mg/dL
  DBIL: 0.06 mg/dL
  GLC: 139 mg/dL
  IP: 9.4 mg/dL
  K: 4.4 meq/L
  LDH: 271.7 IU/L
  RALB: 2.2 g/dL
  TBIL: 0.2 mg/dL
  TC: 93.3 mg/dL
  TG: 45.3 mg/dL
  TP: 4.9 g/dL
  gamma-GTP: 6.7 IU/L
